Measurements reported in PubChem BioAssay (NCI).
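Following 48 hours of exposure in 96-well plates, responses at five concentrations were used to interpolate endpoints linearly. TGI: total growth inhibition.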

How the values were obtained:
Test in all cases: NCI anticancer screen, dose series, 48 h
[1] = tested on: OVCAR-5 ovarian
[2] = tested on: SK-MEL-28 melanoma
[3] = tested on: TK-10 renal
[4] = tested on: U251 CNS
[5] = tested on: HS 578T breast
[6] = tested on: SR leukemia
[7] = tested on: SW-620 colon
[8] = tested on: ACHN renal
[9] = tested on: SNB-75 CNS
[10] = tested on: RPMI-8226 leukemia
[11] = tested on: K-562 leukemia
[12] = tested on: CAKI-1 renal
[13] = tested on: SK-OV-3 ovarian
[14] = tested on: MDA-MB-435
[15] = tested on: HCC-2998 colon
[16] = tested on: HT29 colon
[17] = tested on: NCI-H23 lung
[18] = tested on: SF-268 CNS
[19] = tested on: M14 melanoma

Row | SMILES | TGI [1] [µM] | TGI [2] [µM] | TGI [3] [µM] | TGI [4] [µM] | TGI [5] [µM] | TGI [6] [µM] | TGI [7] [µM] | TGI [8] [µM] | TGI [9] [µM] | TGI [10] [µM] | TGI [11] [µM] | TGI [12] [µM] | TGI [13] [µM] | TGI [14] [µM] | TGI [15] [µM] | TGI [16] [µM] | TGI [17] [µM] | TGI [18] [µM] | TGI [19] [µM]
1 | CN1Cc2ccccc2S(=O)(=O)n2cccc2C1=O | > 100 | > 100 | > 100 | > 100 | > 100 | > 100 | > 100 | > 100 | > 100 | > 100 | > 100 | > 100 | > 100 | > 100 | – | – | – | – | –
2 | S=c1nc2sc3c(c2c(Nc2ccc(Cl)cc2)[nH]1)CCCC3 | > 100 | > 100 | > 100 | > 100 | > 100 | > 100 | > 100 | > 100 | – | 72.4 | > 100 | > 100 | > 100 | > 100 | > 100 | > 100 | > 100 | > 100 | –
3 | CC1=CC(=O)[C@@H](O)[C@]2(C)[C@H]3[C@@]4(O)OC[C@]35[C@H]([C@@H](C)[C@H]4O)[C@@H](OC(=O)C(C)(C)CO)C(=O)O[C@@H]5C[C@@H]12 | 23.3 | > 100 | – | – | 0.897 | – | > 27.6 | 1.33 | 2.11 | 0.0968 | > 100 | 9.88 | > 81.4 | 1.65 | 1 | 10.4 | 0.0869 | 0.236 | 0.446
4 | O=C1NC(N/N=C/c2ccccc2)=N/C1=C\c1ccco1 | > 100 | > 100 | 92.3 | 68.4 | 78.3 | – | > 100 | 55.4 | > 100 | > 100 | – | > 100 | > 100 | > 100 | > 100 | > 100 | 95.6 | 75.6 | > 100
5 | O=C(C1OC1c1ccc(Cl)cc1)C12CC3CC(CC(C3)C1)C2 (stereo not given) | 50.8 | 32.5 | > 100 | 29.2 | 73.9 | – | 44.6 | 90.1 | 96.1 | – | 51.2 | 67.5 | 74 | 33.1 | 35.4 | 41.9 | 38.4 | 53 | 38.1
6 | Cc1cccc2oc3c(CC(=O)O)cccc3c(=O)c12 | – | > 100 | > 100 | > 100 | > 100 | > 100 | > 100 | > 100 | – | > 100 | > 100 | > 100 | – | > 100 | 40.9 | > 100 | > 100 | > 100 | > 100
7 | S=C(N1CCN(c2ccc(Cl)c(Cl)c2)CC1)N1CCN(c2ccc(Cl)c(Cl)c2)CC1 | 44.7 | 28.7 | 26.1 | 28 | 26 | 5.82 | 33.8 | 27.4 | – | 39.4 | 26.7 | 20.4 | 25.1 | 29 | 26.6 | 21.3 | 29.7 | 32.4 | 32.3
